Laboratory results published in patent EP0891991A2, “Tris(pentafluorophenyl)borate complexes and catalysts derived therefrom” (MINNESOTA MINING AND MANUFACTURING COMPANY, priority 1995, dated 1996).

Test: Stability of tris(pentafluorophenyl)borane hydrates
Type: physicochemical
Details: in solution or in the solid state
From the text: Of the class of compounds of the type (C6F5)3B-(YXH)q, when Y is hydrogen, X is oxygen, and q is 1 or 3, the complex with water is a special case. Exposure of anhydrous (C6F5)3B to water vapor, produces (C6F5)3B·3H2O, a white, stable solid. No intermediate hydrate was detected by infrared spectroscopic analysis. […] Formation of a trihydrate was unexpected because all other previously known (C6F5)3B complexes with Lewis bases have a 1:1 stoichiometry. Vacuum sublimation of the trihydrate produced a mixture of the monohydrate and (C6F5)3B. The pure monohydrate, (C6F5)3B·H2O, however may be obtained by combining in organic solvents, such as toluene or chloroform, one equivalent of (C6F5)3B·3H2O with two equivalents of (C6F5)3B followed by evaporation of the solvent. This conproportionation reaction is a convenient way of synthesizing the monohydrate as needed. […] The monohydrate may also be prepared by combining one mole each of water and (C6F5)3B.

For `Fc1c(F)c(F)c(B(c2c(F)c(F)c(F)c(F)c2F)c2c(F)c(F)c(F)c(F)c2F)c(F)c1F.O` [Example 2], the stability was “unstable and slowly decomposes”.
